Experimental data: patent US8486900B2, “Method for preparing a Centella asiatica extract rich in madecassoside and in terminoloside” (Bayer Consumer Care AG, priority 2002, dated 2013)
“And” between values parts separate entries of the source, which are not always exact repeats. Identical values can stand only once.

Key:
Format in all cases: cell-based
NFκB = experiment: TNF-α-induced activation of NFκB in nuclei of normal human fibroblasts; conditions: for NFκB (AU), mean / NFκB (AU), single values / NFκB, % control: TNF-α 25 ng/ml; for NFκB, % control: control with TNF-α = 100
Description: This study makes it possible to evaluate the effects of the mixture according to the invention on the activation of NFκB, using a very sensitive specific method based on measuring the binding of the transcription factor NFκB to the consensus oligonucleotide sequence immobilized on a plastic support. Bound NFκB is secondarily recognized by a specific anti-NFκB antibody. This assay was carried out on isolated nuclei of normal human fibroblasts. The culture medium is DMEM, which comprises: • 2 mM L-glutamine • 50 IU/ml penicillin, 50 μg/ml streptomycin • 10% (v/v) fetal calf serum for the preculture and then a switch to serum-free medium The fibroblasts were precultured in 175 cm^2 flasks in DMEM medium containing 10 vol % of FCS until confluency, and the culture medium was then replaced with serum-free DMEM medium. The cells were then cultured in the presence of the products to be assayed or of references, for 1 hour. The proinflammatory agent […] (TNF-α, at 25 ng/ml final concentration; Sigma T0157) was then added to the culture medium and the cells were again incubated for 1 hour at 37° C. and 5% CO2. After incubation, the cells were harvested on ice and the cell nuclei of the various samples were isolated using the Sigma NUC-101 kit according to the protocol recommended by the supplier. The amount of proteins of each nuclear extract was determined using the Biorad 500-0116 assay kit. The amount of activated NFκB bound to the specific oligonucleotide was measured on the same amount of nuclear extract of each sample, i.e. 50 μl, diluted 50/50, after visualization using a specific anti-NFκB antibody. […] AU represents the arbitrary units of NFκB in the extract; this is the difference between the measured value and the background noise.

IL-8 = experiment: Effect of interferon-γ on production and release of IL-8 by normal human keratinocytes
Description: (§1) The study is carried out on normal human keratinocytes. The cells are first treated with 4 concentrations of interferon-gamma (IFN-γ), for 24 hours.
(§2) Next, the inflammation mediators are measured in the control cultures and cultures treated with IFN-γ, by assaying IL-8 and TNF-α in the culture supernatants and by assaying cell proteins. The method of measurement used is the Coomassie blue test; it is a standardized method.
(§3) The effects of interferon-gamma (IFN-γ) on the production and release of epidermal cytokines was studied on normal human keratinocytes (strain K02-1H4). 4 concentrations of IFN-g were tested:
The effects of IFN-γ on the production and release of IL-8 were studied under the same experimental conditions.

PGE-2 = experiment: Effect of interferon-γ on release of PGE-2 by normal human keratinocytes
Description: as §3
The effects of IFN-γ on the production and release of PGE-2 was studied under the same experimental conditions as previously described (Table 31).

IL-1α = experiment: Effect of interferon-γ on intracellular IL-1α production by normal human keratinocytes; design: multiplication of the basal amount of IL-1α: dose or concentration left out as unconfirmed
Text: The effects of interferon-gamma (IFN-γ) on the production and release of epidermal cytokines was studied on normal human keratinocytes (strain K02-1H4).

TNF-α = experiment: Effect of interferon-γ on production of TNF-α by normal human keratinocytes; conditions: for TNF-α, mean: normal human keratinocytes, 24 h
Description: as §1, §2

[1] = K02-1H4, interferon-γ 1000 U/ml
[2] = K02-1H4, interferon-γ 2000 U/ml

For `C[C@@H]1C[C@H]2[C@@H]3CCC4=CC(=O)C=C[C@]4(C)[C@@]3(F)[C@@H](O)C[C@]2(C)[C@@]1(O)C(=O)CO` [dexamethasone, Dexamethasone], the “nuclear translocation of NFκB induced by TNF-α” value (NFκB; 0.1 μM) was “did not inhibit”, the “NFκB (AU), mean” value (NFκB; 0.1 μM dexamethasone) was 9.46 AU and the “NFκB (AU), single values” (NFκB; 0.1 μM dexamethasone) was 10.94 AU and 7.3 AU and 9.90 AU and 9.67 AU. The “NFκB, % control” value (NFκB; 0.1 μM dexamethasone) was 99%.
In the case of `O=C(O)c1cc(/N=N/c2ccc(S(=O)(=O)Nc3ccccn3)cc2)ccc1O` [sulfasalazine, Sulfasalazine], the “NFκB (AU), mean” value (NFκB; 5 mM sulfasalazine) was 4.19 AU, the “NFκB (AU), single values” (NFκB; 5 mM sulfasalazine) was 4.93 AU and 4.01 AU and 2.88 AU and the “NFκB, % control” value (NFκB; 5 mM sulfasalazine) was 44%.
With “Interferon-γ: interferon-gamma used as irritative agent to stimulate keratinocytes” the “multiplication of the basal amount of IL-8” value (IL-8; Example 8, interferon 1000 U/ml) was 26 fold, the “multiplication of the basal amount of IL-8” value (IL-8; Example 8, interferon 2000 U/ml) was 38 fold and the “IL-8, mean” value (IL-8; Example 8, normal human keratinocytes, 24 h, interferon-γ 100 U/ml) was 0.980 pg/μg proteins. The “IL-8, mean” value (IL-8; Example 8, normal human keratinocytes, 24 h, interferon-γ 500 U/ml) was 1.301 pg/μg proteins, the “IL-8, mean” value (IL-8; Example 8, normal human keratinocytes, 24 h, interferon-γ 1000 U/ml) was 1.991 pg/μg proteins and the “IL-8, mean” value (IL-8; Example 8, normal human keratinocytes, 24 h, interferon-γ 2000 U/ml) was 2.917 pg/μg proteins. For the same compound, the “IL-8, mean” value (IL-8; Example 12, K02-1H4, interferon-γ 100 U/ml) was 0.252 pg/μg proteins, the “IL-8, mean” value (IL-8; Example 12, K02-1H4, interferon-γ 500 U/ml) was 0.350 pg/μg proteins and the “IL-8, mean” value (IL-8; Example 12, K02-1H4, interferon-γ 1000 U/ml) was 0.516 pg/μg proteins. For the same compound, the “IL-8, mean” value (IL-8; Example 12, K02-1H4, interferon-γ 2000 U/ml) was 0.671 pg/μg proteins, the “stimulation of the production and release of PGE-2” value (PGE-2; 100 to 2000 U/ml) was “not capable of stimulating” and the “Extracellular PGE-2, mean” value (PGE-2; K02-1H4, interferon-γ 100 U/ml) was 3.60 pg/μg proteins. The “Extracellular PGE-2, mean” value (PGE-2; K02-1H4, interferon-γ 500 U/ml) was 3.45 pg/μg proteins, the “Extracellular PGE-2, mean” value (PGE-2; [1]) was 3.48 pg/μg proteins and the “Extracellular PGE-2, mean” value (PGE-2; [2]) was 3.80 pg/μg proteins. For the same compound, the “multiplication of the basal amount of IL-1α” value (IL-1α; IFN-γ 1000) was 2.6 fold, the “multiplication of the basal amount of IL-1α” value (IL-1α; IFN-γ 2000) was 3.8 fold and the “IL-1α (intracellular), mean” value (IL-1α; K02-1H4, interferon-γ 100 U/ml) was 6.80 pg/μg proteins. The “IL-1α (intracellular), mean” value (IL-1α; K02-1H4, interferon-γ 500 U/ml) was 8.29 pg/μg proteins, the “IL-1α (intracellular), mean” value (IL-1α; [1]) was 11.21 pg/μg proteins and the “IL-1α (intracellular), mean” value (IL-1α; [2]) was 12.48 pg/μg proteins. The “multiplication of the basal amount of TNF-α” value (TNF-α; interferon 1000 U/ml) was 3.3 fold, the “multiplication of the basal amount of TNF-α” value (TNF-α; interferon 2000 U/ml) was 4.5 fold and the “TNF-α, mean” value (TNF-α; interferon-γ 100 U/ml) was 3.198 pg/μg proteins. The “TNF-α, mean” value (TNF-α; interferon-γ 500 U/ml) was 8.605 pg/μg proteins, the “TNF-α, mean” value (TNF-α; interferon-γ 1000 U/ml) was 10.773 pg/μg proteins and the “TNF-α, mean” value (TNF-α; interferon-γ 2000 U/ml) was 14.545 pg/μg proteins.
